The test deals with T1, Human TLR9 (Homo sapiens, UniProt Q9NR96).
T1 sequence (Q9NR96 26-1032): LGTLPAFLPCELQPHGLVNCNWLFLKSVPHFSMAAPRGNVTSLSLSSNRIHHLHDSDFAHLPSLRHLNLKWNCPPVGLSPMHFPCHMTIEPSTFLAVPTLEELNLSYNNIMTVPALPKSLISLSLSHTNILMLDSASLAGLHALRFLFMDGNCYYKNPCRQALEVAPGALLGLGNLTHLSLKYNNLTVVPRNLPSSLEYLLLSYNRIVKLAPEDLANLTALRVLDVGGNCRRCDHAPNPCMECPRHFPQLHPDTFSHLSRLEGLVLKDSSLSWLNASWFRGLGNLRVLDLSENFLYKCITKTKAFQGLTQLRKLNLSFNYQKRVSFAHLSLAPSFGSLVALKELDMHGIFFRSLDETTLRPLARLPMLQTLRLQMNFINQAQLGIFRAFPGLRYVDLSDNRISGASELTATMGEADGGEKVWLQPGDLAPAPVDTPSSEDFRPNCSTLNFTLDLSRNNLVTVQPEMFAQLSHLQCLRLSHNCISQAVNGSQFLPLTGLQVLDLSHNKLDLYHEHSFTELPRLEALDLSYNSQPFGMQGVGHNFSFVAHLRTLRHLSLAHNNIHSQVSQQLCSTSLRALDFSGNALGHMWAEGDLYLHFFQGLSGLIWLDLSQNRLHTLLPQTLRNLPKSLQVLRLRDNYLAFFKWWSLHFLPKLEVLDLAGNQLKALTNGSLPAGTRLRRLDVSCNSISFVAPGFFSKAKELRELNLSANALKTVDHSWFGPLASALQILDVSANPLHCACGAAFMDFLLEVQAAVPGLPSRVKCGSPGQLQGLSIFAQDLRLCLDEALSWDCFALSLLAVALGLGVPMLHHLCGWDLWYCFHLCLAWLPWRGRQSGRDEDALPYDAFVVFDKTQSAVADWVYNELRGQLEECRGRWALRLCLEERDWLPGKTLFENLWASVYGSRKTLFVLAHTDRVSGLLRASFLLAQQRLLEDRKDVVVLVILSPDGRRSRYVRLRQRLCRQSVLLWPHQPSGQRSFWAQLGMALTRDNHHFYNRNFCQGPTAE
In words: HEK-293 NFkB-luciferase reporter assay, CpG-ODN stimulation. The arrangement: stably and individually express human TLR4, TLR7 or TLR9 full-length ORF cDNAs; expressed in transfected cells; host or cells: HEK-293 (ATCC) with ELAM-1 NF-kappaB luciferase reporter. The following applies: ligand CpG-ODN. Format: cell-based. An excerpt: HEK-293 cells (ATCC) were engineered to stably express a NF-kappaB transcription factor inducible E-selectin (ELAM-1) luciferase reporter derived from the plasmid pGL3 (Promega) containing base pairs −2241 bp to −254 bp from the promoter of the human E-selectin gene (Accession No. NM_000450). These cells were then subsequently engineered to stably and individually express human TLR4, TLR7 or TLR9 full-length ORF cDNAs. Human TLR4 cDNA (Accession No. NM_138554) was cloned into pcDNA 3.0 expression vector (Invitrogen). TLR4 transfected cells were also engineered to express human MD-2 co-receptor [MD-2 cDNA (Accession No. NM_015364) was cloned into the pEF-BOS vector] and were supplemented with 10 nM soluble CD14 (R&D Systems) in the media to optimize LPS responsiveness. Human TLR9 cDNA (Accession No. NM_017442) was cloned into the pBluescript II KS vector (Agilent). Human TLR7 cDNA (Accession No. NM_016562) was obtained from OriGene. HEK-293 cells stably expressing human TLR8 (Accession No. NM_138636) or mouse TLR7 (Accession No. NM_133211) were purchased from InvivoGen and were then stably transfected with pNiFty2(NF-kappaB)-luciferase reporter plasmid (InvivoGen). Each cell type was plated in Dulbecco's modified Eagle's medium (DMEM) containing 10% fetal bovine serum (FBS) at a density of 2.22×10^5 cells/ml into a 384-well plate and incubated for 2 days at 37° C., 5% CO2. […]

As a reminder, the IC50 is the concentration needed to halve the response being measured. Low readings indicate greater potency, high ones weaker potency. The compound `C[C@H]1C[C@@H](N)CN(c2ccc(C#N)c3ncccc23)C1` [ER-888840, 5-((3R,5S)-3-amino-5-methylpiperidin-1-yl)quinoline-8-carbonitrile] registered an IC50 of 8.77 µM.

These data come from patent publication US9663486B2, “Selectively substituted quinoline compounds” (EISAI R&D MANAGEMENT CO., LTD., priority 2013, dated 2017).
